Structures can show the parent of a compound that is named as a salt.
Legend:
Assay type in all cases: cell-based, human
peritoneal macrophages [1] = experiment: Degree of differentiation and activation of peritoneal macrophages (CD15, CD11c, CD69, CD71 cytofluorimetry); conditions: Control = 1.0; after 6 days of incubation; α-lipoic acid 50 μM, ambroxol 10 μM, enalapril 5 μM, captopril 10 μM
peritoneal macrophages [2] = experiment: as above; conditions: Control = 1.0; after 6 days of incubation; α-lipoic acid 50 μM, ambroxol 10 μM, enalapril 5 μM, captopril 10 μM; remark: listed apart in the source
Procedure: Peritoneal macrophages were isolated from patients during renal replacement therapy using the method described in Example 3 and cultivated in the presence of the combinations of α-lipoic acid and effectors of the glutathione metabolism according to the invention. After 6 days of incubation, the degree of differentiation of the peritoneal macrophages was determined by means of the expression of the cell surface antigens CD15 and CD11c, and the degree of cellular activation was determined using cytofluorimetry by means of the co-expression of the activation antigens CD69 to CD15-positive cells and CD71 to […] cells.

peritoneal macrophages [3] = experiment: Phagocytosis capacity of peritoneal macrophages (cytofluorimetric test with opsonized fluorochrome-marked bacteria); conditions: treatment time of 6 days
Procedure: Peritoneal macrophages were isolated using a method analogous to the method described in Example 3 and cultivated ex vivo. The phagocytosis capacity was determined by a cytofluorimetric test on the single-cell level. The macrophages were thereby co-cultivated with opsonized and fluorochrome-marked bacteria. The number of bacteria absorbed during a defined period was determined quantitatively by means of the fluorescence intensity in the macrophages and was used as a measurement for their phagocytosis capacity. The influence of the combinations used according to the invention on the phagocytosis capacity of the peritoneal macrophages after a treatment time of 6 days is presented in the following table.

T-lymphocytes = experiment: Activation markers CD69, CD25, CD71 of PHA-stimulated T-lymphocytes (activation index); conditions: thiol-deficient cells, 1.0 μg/ml phytohemagglutinin, culture time 72 hours; normal = 1.0
Procedure: In the cultivation experiment described with reference to Example 1, human T-lymphocytes were stimulated with 1.0 μg/ml phytohemagglutinin. In a culture time of 72 hours, specific markers of the cellular activation were quantitatively detected using cytofluorimetery by means of monoclonal antibodies. The influence of the combinations used according to the invention on the activation markers CD69 (early activation antigen), CD25 (intermediate activation antigen) and CD71 (late activation antigen) of T-lymphocytes was measured. […] It can thus be concluded that the normalization of the cellular thiol status achieved by the combined use of α-lipoic acid and the respective effectors of the glutathione metabolism is accompanied by a restitution of cell function.

[4] = system: lymphocytes (peripheral immune cells); experiment: Membrane-bound thiol expression of thiol-depleted peripheral immune cells (CMTMR flow cytofluorimetry); conditions: α-lipoic acid 50 μM, captopril 10 μM, combination at the same concentrations
Procedure: Peripheral immune cells from healthy donors (n=9) were isolated from the peripheral blood. The major fraction of the resulting total population of mononuclear cells regularly represents lymphocytes with a relative percentage of approximately 90%, depending on the donor. 10% of the mononuclear cells are represented by monocytes. The mononuclear cells obtained were absorbed in special cell culture media and incubated in a gasifying incubation cabinet at 37° C., a relative humidity of 98% and 5% relative air-CO2 content. […] To test the influence of the combinations used according to the invention on the thiol status of thiol-deficient immune cells, these cells were artificially thiol-depleted. This process was carried out using proven methods by cultivation in thiol-deficient media (RPMI 1603). Comparative cultures using complete media (RPMI) 1640) were used to define the best possible normal value under the culture conditions. The expression of membrane-bound thiol groups was also determined using flow cytofluorimetry. In this case, chloromethyltetramethyl rhodamine (CMTMR) was used as thiol conjugate under the conditions of a blocked membrane potential and an inhibited diffusion capacity of the cells. The fluorescence intensity of the fluorochrome molecules bound to the cell membrane is in turn proportional to the number of thiol groups on the cell surface. The results obtained with this experimental investigation of the influence of the combinations according to the invention on the expression of cell membrane bound thiols are presented in FIG. 2 for the combinations of α-lipoic acid and ambroxol (FIG. 2a) and α-lipoic acid and enalapril (FIG. 2b). The following table presents the results for the combination of α-lipoic acid and captopril.

peritoneal macrophages [5] = experiment: Intracellular thiol expression of peritoneal macrophages from peritoneal dialysis patients; conditions: time kinetic over 14 days
Procedure: Peritoneal macrophages were isolated from the effluate of peritoneal dialysis of patients with a high degree of renal insufficiency, absorbed in a cell culture medium and incubated in a gasifying incubation cabinet at 37° C., a relative humidity of 98% and 7.5% relative air-CO2 content. To investigate the influence of the combinations used according to the invention on the thiol status of the peritoneal macrophages, individual fractions were treated with α-lipoic acid, the effectors of the glutathione metabolism ambroxol or the ACE inhibitor enalapril and with the combination of α-lipoic acid/ambroxol or α-lipoic acid/enalapril, while an additional fraction was maintained as an untreated control. The cellular thiol status was determined using the measurement methods described in Example 1. FIG. 4 illustrates the effect of the combination of α-lipoic acid and ambroxol (FIG. 4a) and α-lipoic acid and enalapril (FIG. 4b) in a time kinetic over 14 days […].

peritoneal macrophages [6] = experiment: Stability of membrane-bound thiol expression in peritoneal macrophages in the dialysis model; conditions: 14 days, high-glucose dialysis solution
Procedure: (§1) The combinations of thiol-restored peritoneal macrophages used according to the invention were extracted from this test system after 6 days and cultivated over a period of 14 days in a dialysis model. For this purpose the peritoneal macrophages were adapted to matrices that were coated with collagen IV and placed in contact with conventional high-glucose dialysis solution 3 times a day for 60 minutes each time. In this case, the model was used for the induction of a combined hyperglycemic/osmotic stress. […] The membrane expression of thiol was determined on the basis of the median fluorescence intensity (mfi) of the specimen (3000 cells/measurement) after coupling to a chlormethyl-fuorochrome derivative. […] Here, too, there is a mono-effect of α-lipoic acid, although it lasts only briefly and after approximately 4 days in the dialysis model is only approximately 50% as effective as the combinations. A similar result is apparent in the curves of the membrane-bound thiol expression illustrated in FIG. 7.

peritoneal macrophages [7] = experiment: Stability of intracellular thiol restitution in peritoneal macrophages in the dialysis model; conditions: after approximately 4 days in the dialysis model
Procedure: as §1, with “combinations.” for “combinations. A similar result is apparent in the curves of the membrane-bound thiol expression illustrated in FIG. 7.”

[8] = system: lymphocytes (peripheral immune cells); experiment: Intracellular thiol expression of thiol-depleted peripheral immune cells (CMFDA flow cytofluorimetry); conditions: thiol-deficient conditions (1603), 10-20% thiol reduction
Procedure: Peripheral immune cells from healthy donors (n=9) were isolated from the peripheral blood. The major fraction of the resulting total population of mononuclear cells regularly represents lymphocytes with a relative percentage of approximately 90%, depending on the donor. 10% of the mononuclear cells are represented by monocytes. The mononuclear cells obtained were absorbed in special cell culture media and incubated in a gasifying incubation cabinet at 37° C., a relative humidity of 98% and 5% relative air-CO2 content. […] To test the influence of the combinations used according to the invention on the thiol status of thiol-deficient immune cells, these cells were artificially thiol-depleted. This process was carried out using proven methods by cultivation in thiol-deficient media (RPMI 1603). Comparative cultures using complete media (RPMI) 1640) were used to define the best possible normal value under the culture conditions. […] Primarily non-fluorogenic CMFDA is thereby passively absorbed by the cell. By means of the chlormethyl group, there is a bonding to cytoplasmic thiol groups. […] The median fluorescence intensity of the specimen (10,000 cells) is directly proportional to the concentration of the intracellular thiol groups. […] The data are presented as the ratio of the cellular fluorescence intensity to the respective calibration particles (beads) that were analyzed simultaneously. […]

peritoneal macrophages [9] = experiment: Membrane thiol expression of peritoneal macrophages from peritoneal dialysis patients; conditions: α-lipoic acid effect disappeared after 4 days of treatment
Procedure: Peritoneal macrophages were isolated from the effluate of peritoneal dialysis of patients with a high degree of renal insufficiency, absorbed in a cell culture medium and incubated in a gasifying incubation cabinet at 37° C., a relative humidity of 98% and 7.5% relative air-CO2 content. To investigate the influence of the combinations used according to the invention on the thiol status of the peritoneal macrophages, individual fractions were treated with α-lipoic acid, the effectors of the glutathione metabolism ambroxol or the ACE inhibitor enalapril and with the combination of α-lipoic acid/ambroxol or α-lipoic acid/enalapril, while an additional fraction was maintained as an untreated control. The cellular thiol status was determined using the measurement methods described in Example 1. […] The membrane expression of thiols was determined on the basis of the median fluorescence intensity (mfi) of the specimen (3000 cells/measurement) after coupling to a chlormethyl-fluorochrome derivative.

| SMILES | CD11c/71 co-expression (peritoneal macrophages [1]) | CD11c expression (peritoneal macrophages [2]) | CD15/69 co-expression (peritoneal macrophages [2]) | CD15 expression (peritoneal macrophages [2]) | Phagocytosis rate higher than that of the untreated control by a factor of (peritoneal macrophages [3]) | Effect on the activation index of T-lymphocytes (CD69, CD25, CD71; in words) (T-lymphocytes) | Membrane-resistant thiol expression ([4]; length of culture 0 d) | Membrane-resistant thiol expression ([4]; length of culture 1 d) | Membrane-resistant thiol expression ([4]; length of culture 2 d) | Membrane-resistant thiol expression ([4]; length of culture 3 d) | Membrane-resistant thiol expression ([4]; length of culture 4 d) | Membrane-resistant thiol expression ([4]; length of culture 6 d) | Membrane-resistant thiol expression ([4]; length of culture 8 d) | Membrane-resistant thiol expression ([4]; length of culture 10 d) | Membrane-resistant thiol expression ([4]; length of culture 12 d) | Membrane-resistant thiol expression ([4]; length of culture 14 d) | Effect on cellular thiol expression of peritoneal macrophages (in words) (peritoneal macrophages [5]) | also measured |
| --- | --- | --- | --- | --- | --- | --- | --- | --- | --- | --- | --- | --- | --- | --- | --- | --- | --- | --- |
| CCOC(=O)[C@H](CCc1ccccc1)NC(C)C(=O)N1CCCC1C(=O)O (stereo in doubt) [Enalapril, 1-{N-[(S)-1-ethoxycarbonyl-3-phenylpropyl]-L-alanyl}-L-prolin] | 1.10 ± 0.14 | 1.23 ± 0.22 | 1.19 ± 0.12 | 1.21 ± 0.22 | 1.53 | equivalent to α-lipoic acid only in the case of the effectuation of the CD25 antigen | – | – | – | – | – | – | – | – | – | – | – | – |
| C[C@H](CS)C(=O)N1CCC[C@H]1C(=O)O [Captopril, 1-[(2S)-3-mercapto-2-methylpropionyl]-L-prolin] | 1.52 ± 0.16 | 1.26 ± 0.24 | 1.69 ± 0.21 | 1.19 ± 0.14 | – | – | 2.37 ± 0.45 mfiBeads/Ratio | 2.63 ± 0.39 mfiBeads/Ratio | 2.54 ± 0.41 mfiBeads/Ratio | 2.52 ± 0.38 mfiBeads/Ratio | 2.50 ± 0.41 mfiBeads/Ratio | 2.46 ± 0.50 mfiBeads/Ratio | 2.01 ± 0.39 mfiBeads/Ratio | 1.68 ± 0.29 mfiBeads/Ratio | 1.02 ± 0.51 mfiBeads/Ratio | 0.99 ± 0.46 mfiBeads/Ratio | – | – |
| O=C(O)CCCCC1CCSS1 (stereo not drawn) [α-lipoic acid] | 1.08 ± 0.09 | 1.21 ± 0.11 | 1.09 ± 0.08 | 1.18 ± 0.16 | 1.85 | slight improvement of the cellular activation | 2.37 ± 0.45 mfiBeads/Ratio | 2.65 ± 0.39 mfiBeads/Ratio | 2.43 ± 0.52 mfiBeads/Ratio | 2.31 ± 0.36 mfiBeads/Ratio | 2.26 ± 0.20 mfiBeads/Ratio | 2.19 ± 0.13 mfiBeads/Ratio | 1.93 ± 0.20 mfiBeads/Ratio | 1.63 ± 0.16 mfiBeads/Ratio | 1.32 ± 0.21 mfiBeads/Ratio | 1.34 ± 0.20 mfiBeads/Ratio | increase of the cellular thiol expression | Membrane-bound thiol expression in the dialysis model (in words) (peritoneal macrophages [6]): intermediary; Effectiveness relative to the combinations (peritoneal macrophages [7]): approximately 50%; Effect on the intracellular thiol deficit (in words) [8]: not possible to achieve a complete compensation of the thiol deficit; Effect on membrane-bound thiol expression of peritoneal macrophages (in words) (peritoneal macrophages [9]): very clear effect |
| Nc1c(Br)cc(Br)cc1CNC1CCC(O)CC1 (centres unmarked) [Ambroxol, hydrochloride] | 0.96 ± 0.1 | 1.01 ± 0.09 | – | 0.98 ± 0.13 | 1.35 | does not have any influence on one of the three activation markers | – | – | – | – | – | – | – | – | – | – | had no effect | – |

— patent US20040138311A1, “Medicament containing an effector of the glutathione metabolism together with $g(a)-lipoic acid for treating diabetes mellitus” (priority 2001, published 2004)
